The target in one experiment is Dipeptidyl peptidase 8 (Homo sapiens, UniProt Q6V1X1). The experiment is described as follows: DPP Inhibition Assay. Particulars: pH 7.5; 22 °C.
The target in another experiment is Dipeptidyl peptidase 4 (Homo sapiens, UniProt P27487). The experiment is described as follows: DPP Inhibition Assay. Particulars: pH 7.5; 22 °C.
Sequence of Dipeptidyl peptidase 4 (P27487 whole entry): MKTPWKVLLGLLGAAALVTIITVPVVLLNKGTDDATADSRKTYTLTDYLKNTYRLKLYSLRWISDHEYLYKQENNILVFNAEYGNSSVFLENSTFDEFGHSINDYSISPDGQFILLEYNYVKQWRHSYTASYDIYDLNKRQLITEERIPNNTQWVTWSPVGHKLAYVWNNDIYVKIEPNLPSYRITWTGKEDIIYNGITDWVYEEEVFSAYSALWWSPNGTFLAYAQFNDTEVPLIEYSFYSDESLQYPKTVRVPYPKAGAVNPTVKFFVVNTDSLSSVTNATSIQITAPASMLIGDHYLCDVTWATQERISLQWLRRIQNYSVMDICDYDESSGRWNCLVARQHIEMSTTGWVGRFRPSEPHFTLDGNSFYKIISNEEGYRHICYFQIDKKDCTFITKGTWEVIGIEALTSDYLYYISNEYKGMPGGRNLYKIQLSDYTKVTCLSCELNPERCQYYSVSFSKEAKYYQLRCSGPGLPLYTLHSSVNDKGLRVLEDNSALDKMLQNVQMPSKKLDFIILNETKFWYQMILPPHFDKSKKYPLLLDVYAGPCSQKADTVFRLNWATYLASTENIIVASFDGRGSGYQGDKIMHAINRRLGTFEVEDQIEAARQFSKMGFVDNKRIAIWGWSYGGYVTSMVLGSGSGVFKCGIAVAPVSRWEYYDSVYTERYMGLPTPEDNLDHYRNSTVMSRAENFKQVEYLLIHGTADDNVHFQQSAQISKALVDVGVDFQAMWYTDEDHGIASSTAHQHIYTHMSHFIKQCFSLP

Sequence of Dipeptidyl peptidase 8 (Q6V1X1 whole entry): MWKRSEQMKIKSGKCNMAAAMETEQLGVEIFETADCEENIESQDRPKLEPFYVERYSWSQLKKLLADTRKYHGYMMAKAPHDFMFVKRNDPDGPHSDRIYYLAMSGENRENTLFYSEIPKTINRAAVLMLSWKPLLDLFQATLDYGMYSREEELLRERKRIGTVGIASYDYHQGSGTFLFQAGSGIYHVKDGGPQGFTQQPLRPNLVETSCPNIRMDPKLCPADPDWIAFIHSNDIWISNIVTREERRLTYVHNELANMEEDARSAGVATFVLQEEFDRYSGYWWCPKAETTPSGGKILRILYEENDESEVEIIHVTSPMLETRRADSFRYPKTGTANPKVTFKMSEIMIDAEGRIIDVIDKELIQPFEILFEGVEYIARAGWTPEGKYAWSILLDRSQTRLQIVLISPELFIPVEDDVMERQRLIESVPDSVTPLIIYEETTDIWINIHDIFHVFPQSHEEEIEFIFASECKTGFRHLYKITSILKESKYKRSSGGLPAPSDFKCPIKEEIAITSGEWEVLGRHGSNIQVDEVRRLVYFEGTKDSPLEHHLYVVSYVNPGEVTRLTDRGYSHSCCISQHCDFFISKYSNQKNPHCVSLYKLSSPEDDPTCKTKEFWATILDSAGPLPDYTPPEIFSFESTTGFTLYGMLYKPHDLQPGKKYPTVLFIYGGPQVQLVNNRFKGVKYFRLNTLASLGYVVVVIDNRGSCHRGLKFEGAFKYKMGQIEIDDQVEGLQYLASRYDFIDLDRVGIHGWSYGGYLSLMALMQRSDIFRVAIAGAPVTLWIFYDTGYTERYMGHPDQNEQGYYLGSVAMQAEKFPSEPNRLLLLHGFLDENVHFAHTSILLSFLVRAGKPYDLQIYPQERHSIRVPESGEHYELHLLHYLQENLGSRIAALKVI

On to `CC#C[C@H]1CC[C@@H](C#N)N1C(=O)[C@@H](N)C1CCCC1` [(2S,5R)-1-((2S)-2-amino-2-cyclopentylethanoyl)-5-prop-1-ynylpyrrolidine-2-carbonitrile], for which the Ki at Dipeptidyl peptidase 8 was more than 30 µM.

Turning to `Cn1c(=O)c2c(nc(N3CCC[C@@H](N)C3)n2Cc2ccccc2C#N)n(C)c1=O` [Xanthine mimetic compound 6], the inhibition constant Ki is more than 30 µM on Dipeptidyl peptidase 8 and 0.002 µM on Dipeptidyl peptidase 4.

Source of the values: BindingDB's records for doi:10.1021/bi060184f (Abbott Laboratories, 2006).
